Assay results reported in the supplement of paper PMC10307832.

How the values were obtained:
Assay in all cases: relative viability (nuclei count vs DMSO), 5 days (fraction); higher = more cells survive
BI-D1870 + OSI-027 = compound: CC(C)CCN1c2nc(Nc3cc(F)c(O)c(F)c3)ncc2N(C)C(=O)C1C [BI-D1870] + COc1cccc2cc(-c3nc([C@H]4CC[C@H](C(=O)O)CC4)n4ncnc(N)c34)[nH]c12 [OSI-027] (partner 0.5 µM)
In short: (§1)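 Nuclei were stained with Hoechst during a one-step fixation (final 0.05% Triton X-100, 1% formaldehyde, 1 ug/ml Hoechst) carried out 5 days after dosing, then counted on 4× images. The cells, lung cancer lines in 1536-well plates, had been dosed by pin tool the day after seeding with one drug alone or a fixed anchor-drug dose plus five library-drug doses (not always all listed) in √10 steps. Relative viability is the nuclei count in treated wells divided by that in vehicle wells, and each value is the median of duplicate plates.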

BI-D1870 + Linsitinib = compound: CC(C)CCN1c2nc(Nc3cc(F)c(O)c(F)c3)ncc2N(C)C(=O)C1C [BI-D1870] + C[C@]1(O)C[C@@H](c2nc(-c3ccc4ccc(-c5ccccc5)nc4c3)c3c(N)nccn32)C1 [Linsitinib] (partner 1 µM)
In short: as §1

BI-D1870 + Phenformin = compound: CC(C)CCN1c2nc(Nc3cc(F)c(O)c(F)c3)ncc2N(C)C(=O)C1C [BI-D1870] + N=C(N)NC(=N)NCCc1ccccc1 [Phenformin] (partner 250 µM)
In short: as §1

Zebularine + Luminespib = compound: O=c1ncccn1[C@@H]1O[C@H](CO)[C@@H](O)[C@H]1O [Zebularine] + CCNC(=O)c1noc(-c2cc(C(C)C)c(O)cc2O)c1-c1ccc(CN2CCOCC2)cc1 [Luminespib] (partner 0.01 µM)
In short: as §1

Cell Line | relative viability (BI-D1870 + OSI-027; first compound 0.04 µM) | relative viability (BI-D1870 + OSI-027; first compound 0.1265 µM) | relative viability (BI-D1870 + OSI-027; first compound 0.4 µM) | relative viability (BI-D1870 + OSI-027; first compound 1.265 µM) | relative viability (BI-D1870 + OSI-027; first compound 4 µM) | relative viability (BI-D1870 + Linsitinib; first compound 0.04 µM) | relative viability (BI-D1870 + Linsitinib; first compound 0.1265 µM) | relative viability (BI-D1870 + Linsitinib; first compound 0.4 µM) | relative viability (BI-D1870 + Linsitinib; first compound 1.265 µM) | relative viability (BI-D1870 + Linsitinib; first compound 4 µM) | relative viability (BI-D1870 + Phenformin; first compound 0.04 µM) | relative viability (BI-D1870 + Phenformin; first compound 0.1265 µM) | relative viability (BI-D1870 + Phenformin; first compound 0.4 µM) | relative viability (BI-D1870 + Phenformin; first compound 1.265 µM) | relative viability (BI-D1870 + Phenformin; first compound 4 µM) | relative viability (Zebularine + Luminespib; first compound 1 µM) | relative viability (Zebularine + Luminespib; first compound 3.162 µM) | relative viability (Zebularine + Luminespib; first compound 10 µM) | relative viability (Zebularine + Luminespib; first compound 31.62 µM) | relative viability (Zebularine + Luminespib; first compound 100 µM)
NCI-H1437 | 0.924 | 0.788 | 0.807 | 0.941 | 0.786 | 1.06 | 0.943 | 0.979 | 0.909 | 0.691 | 0.279 | 0.255 | 0.309 | 0.332 | 0.27 | 1.22 | 1.23 | 0.956 | 1.16 | 0.59
COR-L23 | 0.883 | 0.722 | 0.707 | 0.823 | 0.577 | 0.896 | 0.927 | 0.92 | 0.996 | 0.536 | 0.461 | 0.438 | 0.499 | 0.407 | 0.324 | 0.88 | 0.753 | 0.332 | 0.439 | 0.171
ABC-1 | 0.669 | 0.406 | 0.416 | 0.501 | 0.319 | 0.857 | 0.835 | 0.718 | 0.946 | 0.782 | 0.215 | 0.211 | 0.264 | 0.218 | 0.212 | 0.476 |  | 0.458 | 0.317 | 0.364
NCI-H522 | 0.872 | 0.66 | 0.655 | 0.654 | 0.649 |  |  |  |  |  | 0.754 | 0.603 | 0.677 | 0.763 | 0.692 | 0.928 | 0.881 | 0.99 | 0.776 | 0.665
NCI-H838 | 0.378 | 0.352 | 0.349 | 0.47 | 0.462 | 1.13 | 0.962 | 0.998 | 1.13 | 0.957 | 0.523 | 0.503 | 0.613 | 0.595 | 0.518 | 0.299 | 0.312 | 0.276 | 0.243 | 0.228
SW 900 | 0.808 | 0.424 | 0.442 | 0.604 | 0.327 |  |  |  |  |  | 0.748 | 0.452 | 0.63 | 0.672 | 0.618 | 0.187 | 0.21 | 0.218 | 0.162 | 0.137
A549 |  |  |  |  |  | 0.703 | 0.57 | 0.588 | 0.649 | 0.573 | 0.211 | 0.174 | 0.177 | 0.207 | 0.165 |  |  |  |  | 
A-427 | 0.547 | 0.429 | 0.574 | 0.61 | 0.528 | 1.14 | 1.1 | 1.13 | 1.17 | 1.17 | 0.41 | 0.308 | 0.306 | 0.379 | 0.347 | 1.01 | 0.856 | 0.53 | 0.383 | 0.261
NCI-H1792 | 0.753 | 0.613 | 0.533 | 0.552 | 0.397 | 0.622 | 0.607 | 0.47 | 0.619 | 0.387 | 0.361 | 0.289 | 0.259 | 0.504 | 0.508 | 0.667 | 0.4 | 0.286 | 0.266 | 0.254
